Reference: ChEMBL document CHEMBL1130769, “Use of the 1,2,5-thiadiazolidin-3-one 1,1 dioxide and isothiazolidin-3-one 1,1 dioxide scaffolds in the design of potent inhibitors of serine proteinases” (Bioorg Med Chem Lett, 1998)

Key:
[1] = biological target: T1, Neutrophil elastase (Homo sapiens) (UniProt P08246); experiment: Compound was evaluated for inhibitory activity against human leukocyte elastase
T1 sequence (whole entry): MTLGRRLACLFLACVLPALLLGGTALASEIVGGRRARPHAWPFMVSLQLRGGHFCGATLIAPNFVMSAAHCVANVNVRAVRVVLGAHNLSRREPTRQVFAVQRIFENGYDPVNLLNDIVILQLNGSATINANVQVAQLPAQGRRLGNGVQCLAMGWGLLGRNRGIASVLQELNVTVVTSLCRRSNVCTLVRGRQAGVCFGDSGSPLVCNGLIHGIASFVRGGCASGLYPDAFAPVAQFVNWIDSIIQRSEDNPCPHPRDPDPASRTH

[2] = biological target: T2, Cathepsin G (Homo sapiens) (UniProt P08311); experiment: Compound was evaluated for inhibitory activity towards Cathepsin G
T2 sequence (whole entry): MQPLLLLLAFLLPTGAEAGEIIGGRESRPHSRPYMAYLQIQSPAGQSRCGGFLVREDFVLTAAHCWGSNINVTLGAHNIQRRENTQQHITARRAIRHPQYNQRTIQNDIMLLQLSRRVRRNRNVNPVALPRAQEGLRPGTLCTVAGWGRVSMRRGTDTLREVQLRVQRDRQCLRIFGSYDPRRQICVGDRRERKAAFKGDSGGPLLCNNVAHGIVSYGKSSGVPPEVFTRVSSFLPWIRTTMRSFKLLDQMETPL

[3] = biological target: T3, Myeloblastin (Homo sapiens) (UniProt P24158); experiment: Compound was evaluated for inhibitory activity against Proteinase 3
T3 sequence (whole entry): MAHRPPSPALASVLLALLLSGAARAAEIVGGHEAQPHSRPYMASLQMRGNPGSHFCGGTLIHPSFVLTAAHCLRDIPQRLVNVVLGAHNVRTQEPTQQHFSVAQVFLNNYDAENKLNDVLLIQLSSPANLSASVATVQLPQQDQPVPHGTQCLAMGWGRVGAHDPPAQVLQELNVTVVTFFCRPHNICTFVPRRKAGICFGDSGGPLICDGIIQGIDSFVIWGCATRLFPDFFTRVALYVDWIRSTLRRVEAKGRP

Row | Structure (SMILES) | K inact/Ki [1] [M⁻¹ s⁻¹] | K inact/Ki [2] [M⁻¹ s⁻¹] | K inact/Ki [3] [M⁻¹ s⁻¹]
1 | CC(C)CC1C(=O)N(COP(=O)(Oc2ccccc2)Oc2ccccc2)S(=O)(=O)N1CC1C=CC=C1 (centres undefined) | 4.2e+06 |  | 
2 | CCCCOP(=O)(OCCCC)OCN1C(=O)C(CC(C)C)CS1(=O)=O (centres undefined) | 82000 |  | 
3 | CCCCOP(=O)(OCCCC)OCN1C(=O)C(CC(C)C)N(C)S1(=O)=O (centres undefined) | 2.7e+06 |  | 
4 | COP(=O)(OC)OCN1C(=O)C(CC(C)C)N(CC2C=CC=C2)S1(=O)=O (centres undefined) | 430000 |  | 

Next, values leading:

Row | K inact/Ki [1] [M⁻¹ s⁻¹] | K inact/Ki [2] [M⁻¹ s⁻¹] | K inact/Ki [3] [M⁻¹ s⁻¹] | Structure (SMILES)
5 | 95000 |  |  | CC(C)CC1CS(=O)(=O)N(COP(=O)(OCc2ccccc2)OCc2ccccc2)C1=O (centres undefined)
6 | 2.5e+06 |  |  | CCCCOP(=O)(OCCCC)OCN1C(=O)C(CC(C)C)N(CC2C=CC=C2)S1(=O)=O (centres undefined)
7 | 6e+06 | 120 | 89100 | CC(C)CC1C(=O)N(COP(=O)(OCc2ccccc2)OCc2ccccc2)S(=O)(=O)N1Cc1ccccc1 (centres undefined)
